From US20180055835A1, “Method for Treating And Preventing Protozoal Infections” (priority 2016, published 2018)

Tests used:
[1] = molecular target: Leishmania donovani topoisomerase I (LdTOPILS); settings: inhibitor of LdTOPILS; Roy A., et al., Biochemical Journal 2007; cited from earlier work
malaria = experiment: Case reports: relapse of malaria in patients given LDN; type: in vivo, human
Procedure: • A patient with HIV suffering from malaria has had relapses at least twice a year for the last five years.
• A person has suffered on and off from malaria for 40 years. The patient was administered 4.5 mg of LDN per day, as an adjunct treatment with chemotherapy.

[2] = test system: immune cells in peripheral blood; experiment: Changes of immune parameters in peripheral blood post treatment, flow cytometry; type: in vivo, BABL/C mice; settings: treatment group after low dose naltrexone
Procedure: (§1) • 45 BABL/C mice, six weeks old, were divided into 5 groups, 9 mice for each group. […] The survival was recorded from the third day of infection and infected rate of malaria are recorded by taking tail vein blood, smearing glass slide, Gimsa staining and checking parasitemia under microscope. • Finally changes of immune parameters in peripheral blood were measured by flow cytometry technology and made comparison to control.

Py13XL malaria [3] = experiment: Prevention of malaria by naltrexone in mice (dosing 7 days before infection); type: in vivo, BABL/C mice; settings: oral, 7 days before infection, on 5 d, 9 mice per group
Procedure: (§2) • 45 BABL/C mice, six weeks old, were divided into 5 groups, 9 mice for each group. […] The survival was recorded from the first day of infection and infected rate of malaria are recorded from the third day of infection by taking tail vein blood, smearing glass slide, Gimsa staining and checking parasitemia under microscope.

[4] = test system: Py13XL malaria (P. falciparum); experiment: as above; type: in vivo, BABL/C mice; settings: for more mice died: on 6 d
Procedure: as §2

Py13XL malaria [5] = experiment: Anti-malaria effect (treatment) with naltrexone in infected mice; type: in vivo, BABL/C mice; settings: for mice died: on 5 d
Procedure: as §1

[6] = 0.5 mg naltrexone per mouse, oral, 7 days before infection, 9 mice per group
[7] = 1 mg naltrexone per mouse, oral, 7 days before infection, 9 mice per group
[8] = 0.5 mg naltrexone treating group, oral daily 15 days from 2 d post infection, 9 mice per group
[9] = 1 mg naltrexone treating group, oral daily 15 days from 2 d post infection, 9 mice per group

Structure (SMILES): c1ccc2c(Cc3c[nH]c4ccccc34)c[nH]c2c1 [DIM]
- IC50 [1]: 1200 nM

Structure (SMILES): O=C1CC[C@@]2(O)[C@H]3Cc4ccc(O)c5c4[C@@]2(CCN3CC2CC2)[C@H]1O5 [naltrexone]
- time without relapse of malaria (malaria; patient with HIV, relapses at least twice a year before, 4.5 mg per day as adjunct treatment for HIV): 24 months
- time without relapse of malaria (malaria; person, malaria on and off for 40 years, 4.5 mg per day, adjunct with chemotherapy): over 24 months
- Total nucleated cell ([2]; control 1.30 ± 0.13, P < 0.01): 4.21 ± 0.75
- Treg cell ([2]; control 4.22 ± 0.64, P < 0.01): 2.15 ± 0.48
- NK cell ([2]; control 7.58 ± 1.59, P < 0.01): 20.39 ± 4.42
- Macrophage ([2]; control 9.18 ± 0.26, P < 0.01): 12.1 ± 0.56
- CD4+ T cell ([2]; control 22.65 ± 3.48, P < 0.01): 34.81 ± 5.78
- CD8+ T cell ([2]; control 35.33 ± 3.62, P < 0.01): 59.63 ± 3.78
- CD3+ T cell ([2]; control 48.90 ± 4.06, P < 0.01): 67.04 ± 4.20
- mice died (Py13XL malaria [3]; 0.5 mg naltrexone per mouse): 1 mice
- mice died (Py13XL malaria [3]; 1 mg naltrexone per mouse): 1 mice
- mice died (Py13XL malaria [3]; 2 mg naltrexone per mouse): 4 mice
- mice still alive at the end point [4, 6]: 1 mice
- more mice died [4, 6]: 7 mice
- protecting effect compared between dose groups ([4]; 1 mg naltrexone per mouse versus 0.5 mg and 2 mg): best protecting effect
- survival rate ([4]; 1 mg naltrexone per mouse, oral, 7 days before infection): 33.3%
- mice still alive till the end point [4, 7]: 3 mice
- more mice died [4, 7]: 5 mice
- parasitemia ([4]; 1 mg naltrexone per mouse, surviving mice, on 20 d): all infection parasitemia disappeared
- more mice died ([4]; 2 mg naltrexone per mouse, oral, 7 days before infection, 9 mice per group): 5 mice
- mice still alive for end point (Py13XL malaria [5]; [8]): 3 mice
- mice died (Py13XL malaria [5]; [8]): 2 mice
- more mice died (Py13XL malaria [5]; 0.5 mg naltrexone treating group, oral daily 15 days from 2 d post infection, on 6 d, 9 mice per group): 4 mice
- treatment effect compared between dose groups (Py13XL malaria [5]; 1 mg naltrexone group versus 0.5 mg and 2 mg): best treatment
- mice still alive till end point (Py13XL malaria [5]; [9]): 6 mice
- mice died (Py13XL malaria [5]; [9]): 0 mice
- more mice died (Py13XL malaria [5]; 1 mg naltrexone treating group, oral daily 15 days from 2 d post infection, on 6 d, 9 mice per group): 2 mice
- more mice died (Py13XL malaria [5]; 1 mg naltrexone treating group, oral daily 15 days from 2 d post infection, on 9 d, 9 mice per group): 1 mice
- parasitemia (Py13XL malaria [5]; 1 mg naltrexone treating group, surviving mice, on 20 d): parasitemia disappeared
- mice died (Py13XL malaria [5]; 2 mg naltrexone group, oral daily from 2 d post infection, 9 mice per group): 5 mice
- more mice died (Py13XL malaria [5]; 2 mg naltrexone group, oral daily from 2 d post infection, on 6 d, 9 mice per group): 4 mice
- toxicity to animals (Py13XL malaria [5]; 2 mg naltrexone, infected mice): shows toxicity
